ChEMBL document CHEMBL1287736, “Design of a novel class of biphenyl CETP inhibitors” (Bioorg Med Chem Lett, 2010)
pIC50: −log10 of the molar value.

Assays:
[1] = molecular target: T1, Cholesteryl ester transfer protein (Homo sapiens, UniProt P11597); assay: Inhibition of CETP-mediated neutral lipid transfer by fluorometric analysis
T1 sequence (P11597 whole entry): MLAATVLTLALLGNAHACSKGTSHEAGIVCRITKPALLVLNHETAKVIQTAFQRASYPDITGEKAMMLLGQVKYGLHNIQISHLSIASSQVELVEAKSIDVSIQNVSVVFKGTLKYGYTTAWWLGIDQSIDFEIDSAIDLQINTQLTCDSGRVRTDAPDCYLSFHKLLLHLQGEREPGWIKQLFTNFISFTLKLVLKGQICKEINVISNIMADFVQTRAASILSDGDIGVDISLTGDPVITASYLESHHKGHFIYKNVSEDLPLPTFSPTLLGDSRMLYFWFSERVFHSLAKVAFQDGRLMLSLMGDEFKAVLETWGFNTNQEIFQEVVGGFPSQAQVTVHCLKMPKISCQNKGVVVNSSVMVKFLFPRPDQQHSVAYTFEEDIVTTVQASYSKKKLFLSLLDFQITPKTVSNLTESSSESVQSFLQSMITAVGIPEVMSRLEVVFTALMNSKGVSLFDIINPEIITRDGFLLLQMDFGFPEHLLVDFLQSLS

Mus musculus [2] = assay: Cardioprotective activity in transgenic B6 mouse expressing cynomolgus monkey CETP assessed as increase in HDL-cholesterol level at 1 mg/kg, po BID measured after 24 hrs of first dose; assay type: functional
Mus musculus [3] = assay: Cardioprotective activity in transgenic B6 mouse expressing cynomolgus monkey CETP assessed as increase in HDL-cholesterol level at 3 mg/kg, po BID measured after 24 hrs of first dose; assay type: functional
Mus musculus [4] = assay: Cardioprotective activity in transgenic B6 mouse expressing cynomolgus monkey CETP assessed as increase in HDL-cholesterol level at 10 mg/kg, po BID measured after 24 hrs of first dose; assay type: functional
Mus musculus [5] = assay: Cardioprotective activity in transgenic B6 mouse expressing cynomolgus monkey CETP assessed as increase in HDL-cholesterol level at 30 mg/kg, po BID measured after 24 hrs of first dose; assay type: functional
Mus musculus [6] = assay: Cardioprotective activity in po dosed transgenic B6 mouse expressing cynomolgus monkey CETP assessed as increase in HDL-cholesterol level administered BID measured after 24 hrs of first dose; assay type: functional, organism-based
Mus musculus [7] = assay: Cardioprotective activity in transgenic B6 mouse expressing cynomolgus monkey CETP assessed as increase in HDL-cholesterol level at 100 mg/kg, po BID measured after 24 hrs of first dose; assay type: functional

Structure (SMILES)	pIC50 [1]	also measured
COC(=O)N(Cc1cc(C(F)(F)F)cc(C(F)(F)F)c1)Cc1cc(C(F)(F)F)ccc1-c1ccccc1OC	5.80	–
COC(=O)N(Cc1cc(C(F)(F)F)cc(C(F)(F)F)c1)Cc1cc(C(F)(F)F)ccc1-c1cc(C(C)C)ccc1OC	6.97	Activity (Mus musculus [2]): 37%; Activity (Mus musculus [3]): 43%; Activity (Mus musculus [4]): 54%; Activity (Mus musculus [5]): 86%; Activity (Mus musculus [6]): Dose-dependent effect
COC(=O)N(Cc1cc(C(F)(F)F)cc(C(F)(F)F)c1)Cc1cc(C(F)(F)F)ccc1-c1cc(C(C)(C)C)ccc1OC	5.59	–
COC(=O)N(Cc1cc(C(F)(F)F)cc(C(F)(F)F)c1)Cc1cc(OC)ccc1-c1cc(C(C)C)ccc1OC	6.16	–
COC(=O)N(Cc1cc(C(F)(F)F)cc(C(F)(F)F)c1)Cc1cc(Cl)ccc1-c1cc(C(C)C)ccc1OC	5.84	–
COC(=O)N(Cc1cc(C(F)(F)F)cc(C(F)(F)F)c1)Cc1cc(C(F)(F)F)ccc1-c1cc(C(C)C)c(F)cc1OC	6.93	–
COC(=O)N(Cc1cc(C(F)(F)F)cc(C(F)(F)F)c1)Cc1cc(C(F)(F)F)ccc1-c1cc(OC)ccc1OC	6.35	–
CCOc1ccc(C)cc1-c1ccc(C(F)(F)F)cc1CN(Cc1cc(C(F)(F)F)cc(C(F)(F)F)c1)C(=O)OC	5.35	–
COC(=O)N(Cc1cc(C(F)(F)F)cc(C(F)(F)F)c1)Cc1cc(C#N)ccc1-c1cc(C(C)C)ccc1OC	6.65	–
COC(=O)N(Cc1cc(C(F)(F)F)cc(C(F)(F)F)c1)Cc1cc(I)ccc1-c1cc(C(C)C)ccc1OC	6.44	–
COC(=O)N(Cc1cc(C(F)(F)F)cc(C(F)(F)F)c1)Cc1cc(F)ccc1-c1cc(C(C)C)ccc1OC	5.76	–
COC(=O)N(Cc1cc(C(F)(F)F)cc(C(F)(F)F)c1)Cc1cc(C(F)(F)F)ccc1-c1cc(C)ccc1OC	6.33	Activity (Mus musculus [7]): 40%
COC(=O)N(Cc1cc(C(F)(F)F)cc(C(F)(F)F)c1)Cc1cc(N)ccc1-c1cc(C(C)C)ccc1OC	5.33	–
COC(=O)N(Cc1cc(C(F)(F)F)cc(C(F)(F)F)c1)Cc1ccccc1-c1cc(C(C)C)ccc1OC	5.42	–
COC(=O)N(Cc1cc(C(F)(F)F)cc(C(F)(F)F)c1)Cc1cc([N+](=O)[O-])ccc1-c1cc(C(C)C)ccc1OC	6.87	–
COC(=O)N(Cc1cc(C(F)(F)F)cc(C(F)(F)F)c1)Cc1cc(C(C)(C)C)ccc1-c1cc(C(C)C)ccc1OC	5.02	–
CCCc1ccc(OC)c(-c2ccc(C(F)(F)F)cc2CN(Cc2cc(C(F)(F)F)cc(C(F)(F)F)c2)C(=O)OC)c1	6.12	–
CCc1ccc(OC)c(-c2ccc(C(F)(F)F)cc2CN(Cc2cc(C(F)(F)F)cc(C(F)(F)F)c2)C(=O)OC)c1	6.68	–
